Assay results from the NIST ThermoML archive (doi:10.1016/j.fluid.2015.03.038).
Several values for one entry are separate records, joined by “and”; a condition that tells them apart may be missing. Identical values can stand only once. Numbers after ± are expanded uncertainties.

Details: Liquid

Compound: OCC(O)CO [glycerol]
- vapor or sublimation pressure (303.59 K, static (had to override TRC unc)): 4.15e-05 ± 7e-07 kPa
- vapor or sublimation pressure (303.61 K, static (had to override TRC unc)): 4.19e-05 ± 7e-07 kPa
- vapor or sublimation pressure (304.56 K, static (had to override TRC unc)): 4.68e-05 ± 7e-07 kPa
- vapor or sublimation pressure (306.03 K, static (had to override TRC unc)): 5.56e-05 ± 8e-07 kPa
- vapor or sublimation pressure (308.43 K, static (had to override TRC unc)): 7.28e-05 ± 9e-07 kPa
- vapor or sublimation pressure (310.89 K, static (had to override TRC unc)): 9.63e-05 ± 1e-06 kPa
- vapor or sublimation pressure (313.29 K, static (had to override TRC unc)): 0.000125 ± 1.1e-06 kPa
- vapor or sublimation pressure (315.71 K, static (had to override TRC unc)): 0.0001634 ± 1.3e-06 kPa
- vapor or sublimation pressure (318.12 K, static (had to override TRC unc)): 0.0002107 ± 1.5e-06 kPa
- vapor or sublimation pressure (320.57 K, static (had to override TRC unc)): 0.0002701 ± 1.9e-06 kPa
- vapor or sublimation pressure (322.95 K, static (had to override TRC unc)): 0.0003472 ± 2.1e-06 kPa
- vapor or sublimation pressure (325.42 K, static (had to override TRC unc)): 0.0004428 ± 2.7e-06 kPa
- vapor or sublimation pressure (327.82 K, static (had to override TRC unc)): 0.0005644 ± 3.4e-06 kPa
- vapor or sublimation pressure (330.3 K, static (had to override TRC unc)): 0.0007165 ± 4.3e-06 kPa
- vapor or sublimation pressure (332.72 K, static (had to override TRC unc)): 0.0009037 ± 5.4e-06 kPa
- vapor or sublimation pressure (335.14 K, static (had to override TRC unc)): 0.001132 ± 5.7e-06 kPa
- vapor or sublimation pressure (338.2 K, transpiration (had to override TRC unc)): 0.00151 ± 4e-05 kPa
- vapor or sublimation pressure (338.25 K, static (had to override TRC unc)): 0.001502 ± 7.5e-06 kPa
- vapor or sublimation pressure (340.68 K, static (had to override TRC unc)): 0.001872 ± 9.4e-06 kPa
- vapor or sublimation pressure (341.7 K, transpiration (had to override TRC unc)): 0.0021 ± 6e-05 kPa
- vapor or sublimation pressure (343.08 K, static (had to override TRC unc)): 0.00232 ± 1.2e-05 kPa
- vapor or sublimation pressure (345.51 K, static (had to override TRC unc)): 0.002876 ± 1.4e-05 kPa
- vapor or sublimation pressure (347.7 K, transpiration (had to override TRC unc)): 0.00355 ± 9e-05 kPa
- vapor or sublimation pressure (347.91 K, static (had to override TRC unc)): 0.003529 ± 1.8e-05 kPa
- vapor or sublimation pressure (350.34 K, static (had to override TRC unc)): 0.00436 ± 2.2e-05 kPa
- vapor or sublimation pressure (351.5 K, transpiration (had to override TRC unc)): 0.00503 ± 0.00013 kPa
- vapor or sublimation pressure (352.57 K, static (had to override TRC unc)): 0.00526 ± 7.9e-05 kPa
- vapor or sublimation pressure (352.58 K, static (had to override TRC unc)): 0.00527 ± 7.4e-05 kPa
- vapor or sublimation pressure (352.6 K, static (had to override TRC unc)): 0.00528 ± 7.4e-05 kPa
- vapor or sublimation pressure (352.73 K, static (had to override TRC unc)): 0.005318 ± 2.7e-05 kPa
- vapor or sublimation pressure (354.5 K, transpiration (had to override TRC unc)): 0.00631 ± 0.00018 kPa
- vapor or sublimation pressure (354.98 K, static (had to override TRC unc)): 0.00639 ± 8.3e-05 kPa
- vapor or sublimation pressure (354.99 K, static (had to override TRC unc)): 0.00641 ± 8.3e-05 kPa
- vapor or sublimation pressure (355.18 K, static (had to override TRC unc)): 0.006488 ± 3.2e-05 kPa
- vapor or sublimation pressure (357.39 K, static (had to override TRC unc)): 0.00777 ± 8.6e-05 kPa
- vapor or sublimation pressure (357.42 K, static (had to override TRC unc)): 0.00782 ± 8.6e-05 kPa
- vapor or sublimation pressure (357.5 K, transpiration (had to override TRC unc)): 0.00831 ± 0.00023 kPa
- vapor or sublimation pressure (357.57 K, static (had to override TRC unc)): 0.007863 ± 3.9e-05 kPa
- vapor or sublimation pressure (359.8 K, static (had to override TRC unc)): 0.00938 ± 9.4e-05 kPa
- vapor or sublimation pressure (359.82 K, static (had to override TRC unc)): 0.00939 ± 9.4e-05 kPa
- vapor or sublimation pressure (360.01 K, static (had to override TRC unc)): 0.009523 ± 4.8e-05 kPa
- vapor or sublimation pressure (360.1 K, transpiration (had to override TRC unc)): 0.00989 ± 0.00027 kPa
- vapor or sublimation pressure (362.42 K, static (had to override TRC unc)): 0.01146 ± 5.7e-05 kPa
- vapor or sublimation pressure (362.63 K, static (had to override TRC unc)): 0.0117 ± 0.00011 kPa
- vapor or sublimation pressure (362.66 K, static (had to override TRC unc)): 0.01179 ± 0.00011 kPa
- vapor or sublimation pressure (363.2 K, transpiration (had to override TRC unc)): 0.01274 ± 0.00034 kPa
- vapor or sublimation pressure (364.82 K, static (had to override TRC unc)): 0.0138 ± 0.00012 kPa
- vapor or sublimation pressure (365.07 K, static (had to override TRC unc)): 0.0141 ± 0.00013 kPa
- vapor or sublimation pressure (365.08 K, static (had to override TRC unc)): 0.01409 ± 0.00013 kPa
- vapor or sublimation pressure (365.9 K, transpiration (had to override TRC unc)): 0.01529 ± 0.00041 kPa
- vapor or sublimation pressure (367.45 K, static (had to override TRC unc)): 0.01686 ± 0.00013 kPa
- vapor or sublimation pressure (367.48 K, static (had to override TRC unc)): 0.01696 ± 0.00014 kPa
- vapor or sublimation pressure (369.89 K, static (had to override TRC unc)): 0.0202 ± 0.00014 kPa
- vapor or sublimation pressure (369.91 K, static (had to override TRC unc)): 0.02016 ± 0.00014 kPa
- vapor or sublimation pressure (370.3 K, transpiration (had to override TRC unc)): 0.0208 ± 0.00054 kPa
- vapor or sublimation pressure (372.27 K, static (had to override TRC unc)): 0.024 ± 0.00017 kPa
- vapor or sublimation pressure (372.29 K, static (had to override TRC unc)): 0.02415 ± 0.00017 kPa
- vapor or sublimation pressure (374.7 K, static (had to override TRC unc)): 0.0286 ± 0.0002 kPa
- vapor or sublimation pressure (374.73 K, static (had to override TRC unc)): 0.0286 ± 0.0002 kPa
- vapor or sublimation pressure (377.08 K, static (had to override TRC unc)): 0.03379 ± 0.0002 kPa
- vapor or sublimation pressure (377.11 K, static (had to override TRC unc)): 0.03408 ± 0.0002 kPa
- vapor or sublimation pressure (377.77 K, static (had to override TRC unc)): 0.03569 ± 0.00021 kPa
- vapor or sublimation pressure (380.17 K, static (had to override TRC unc)): 0.04186 ± 0.00025 kPa
- vapor or sublimation pressure (380.19 K, static (had to override TRC unc)): 0.04192 ± 0.00025 kPa
- vapor or sublimation pressure (382.55 K, static (had to override TRC unc)): 0.04942 ± 0.0003 kPa
- vapor or sublimation pressure (382.59 K, static (had to override TRC unc)): 0.04972 ± 0.0003 kPa and 0.0496 ± 0.0003 kPa
- vapor or sublimation pressure (384.99 K, static (had to override TRC unc)): 0.0582 ± 0.00035 kPa
- vapor or sublimation pressure (385.01 K, static (had to override TRC unc)): 0.05821 ± 0.00035 kPa
- vapor or sublimation pressure (387.37 K, static (had to override TRC unc)): 0.06807 ± 0.00041 kPa
- vapor or sublimation pressure (387.39 K, static (had to override TRC unc)): 0.06861 ± 0.00041 kPa
- vapor or sublimation pressure (389.8 K, static (had to override TRC unc)): 0.07986 ± 0.00048 kPa
- vapor or sublimation pressure (389.83 K, static (had to override TRC unc)): 0.07998 ± 0.00048 kPa
- vapor or sublimation pressure (392.18 K, static (had to override TRC unc)): 0.09311 ± 0.00056 kPa
- vapor or sublimation pressure (392.2 K, static (had to override TRC unc)): 0.09367 ± 0.00056 kPa
- vapor or sublimation pressure (394.61 K, static (had to override TRC unc)): 0.1087 ± 0.00054 kPa
- vapor or sublimation pressure (394.64 K, static (had to override TRC unc)): 0.1087 ± 0.00054 kPa
- vapor or sublimation pressure (397 K, static (had to override TRC unc)): 0.1258 ± 0.00063 kPa
- vapor or sublimation pressure (397.02 K, static (had to override TRC unc)): 0.1266 ± 0.00063 kPa
- vapor or sublimation pressure (399.42 K, static (had to override TRC unc)): 0.1462 ± 0.00073 kPa
- vapor or sublimation pressure (399.45 K, static (had to override TRC unc)): 0.1464 ± 0.00073 kPa
- vapor or sublimation pressure (401.81 K, static (had to override TRC unc)): 0.1688 ± 0.00084 kPa and 0.1687 ± 0.00084 kPa
- vapor or sublimation pressure (401.83 K, static (had to override TRC unc)): 0.1694 ± 0.00085 kPa
- vapor or sublimation pressure (404.23 K, static (had to override TRC unc)): 0.1952 ± 0.001 kPa
- vapor or sublimation pressure (404.26 K, static (had to override TRC unc)): 0.1952 ± 0.00098 kPa
- vapor or sublimation pressure (406.62 K, static (had to override TRC unc)): 0.2242 ± 0.0011 kPa and 0.224 ± 0.0011 kPa
- vapor or sublimation pressure (406.64 K, static (had to override TRC unc)): 0.2251 ± 0.0011 kPa
- vapor or sublimation pressure (409.68 K, static (had to override TRC unc)): 0.2687 ± 0.0013 kPa
- vapor or sublimation pressure (409.69 K, static (had to override TRC unc)): 0.269 ± 0.0013 kPa
- vapor or sublimation pressure (412.08 K, static (had to override TRC unc)): 0.308 ± 0.0015 kPa
- vapor or sublimation pressure (412.11 K, static (had to override TRC unc)): 0.3089 ± 0.0015 kPa
- vapor or sublimation pressure (414.48 K, static (had to override TRC unc)): 0.3526 ± 0.0018 kPa
- vapor or sublimation pressure (414.49 K, static (had to override TRC unc)): 0.3526 ± 0.0018 kPa
- vapor or sublimation pressure (416.89 K, static (had to override TRC unc)): 0.4023 ± 0.002 kPa
- vapor or sublimation pressure (416.92 K, static (had to override TRC unc)): 0.4033 ± 0.002 kPa
- vapor or sublimation pressure (419.3 K, static (had to override TRC unc)): 0.4585 ± 0.0023 kPa and 0.4583 ± 0.0023 kPa
- vapor or sublimation pressure (421.7 K, static (had to override TRC unc)): 0.521 ± 0.0026 kPa
- vapor or sublimation pressure (421.73 K, static (had to override TRC unc)): 0.5224 ± 0.0026 kPa
- vapor or sublimation pressure (424.1 K, static (had to override TRC unc)): 0.5919 ± 0.003 kPa
- vapor or sublimation pressure (424.11 K, static (had to override TRC unc)): 0.5923 ± 0.003 kPa
- vapor or sublimation pressure (426.5 K, static (had to override TRC unc)): 0.6698 ± 0.0034 kPa
- vapor or sublimation pressure (426.53 K, static (had to override TRC unc)): 0.6725 ± 0.0034 kPa
- vapor or sublimation pressure (428.91 K, static (had to override TRC unc)): 0.7586 ± 0.0038 kPa and 0.7584 ± 0.0038 kPa
- vapor or sublimation pressure (431.31 K, static (had to override TRC unc)): 0.8565 ± 0.0043 kPa
- vapor or sublimation pressure (431.34 K, static (had to override TRC unc)): 0.8583 ± 0.0043 kPa
- vapor or sublimation pressure (433.72 K, static (had to override TRC unc)): 0.9653 ± 0.0048 kPa
- vapor or sublimation pressure (433.73 K, static (had to override TRC unc)): 0.9671 ± 0.0048 kPa
- vapor or sublimation pressure (436.11 K, static (had to override TRC unc)): 1.086 ± 0.0054 kPa
- vapor or sublimation pressure (436.13 K, static (had to override TRC unc)): 1.087 ± 0.0054 kPa
